Source: article PMC6770581, “New Thalidomide-Resembling Dicarboximides Target ABC50 Protein and Show Antileukemic and Immunomodulatory Activities” (Biomolecules, 2019)

Legend:
CFPAC cells = assay: MTT cytotoxicity assay, CFPAC; format: cell-based; settings: Homo sapiens, 48 h, mean ± SD
Procedure: Human umbilical vein endothelial cells (purchased from Life Technologies, Carlsbad, CA, USA) were cultured according to the manufacturer’s instructions in Medium 200 supplemented with Low Serum Growth Supplement. 1 × 10^4 cells were seeded on each well on a 96-well plate (Nunc, Roskilde, Denmark). The HeLa (human cervix carcinoma, cat. #93021013), CFPAC (human pancreatic adenocarcinoma, cat. #91112501), K562 (chronic myelogenous leukemia, cat. #89121407), HL-60 (acute myelogenous leukemia, cat. #98070106), and MOLT-4 (Human acute T lymphoblastic leukemia, cat. #85011413) cells were purchased from European Collection of Authenticated Cell Cultures (ECACC). They were cultured in an RPMI 1640 medium supplemented with antibiotics (streptomycin, penicillin) and 10% fetal calf serum (20% for HL60), in a 5% CO2-95% air atmosphere. 7 × 10^3 cells were seeded on each well on a 96-well plate (Nunc). 24 hours later the cells were exposed to the test compounds. The aliquots of stock solutions of the test compounds (freshly prepared in DMSO) were added to the cell cultures to yield final concentrations of 1, 10^−1, 10^−2, 10^−3, 10^−4, and 10^−5 mM. The concentration of DMSO in the cell culture medium was 1%. The IC50 value (the concentration of a test compound required to reduce the cell survival fraction to 50% of the control) was calculated from a dose-response curve and used as a measure of cellular sensitivity to a given treatment. The IC50 values are given as means (± standard deviation (SD)) from 2 independent experiments with 4 technical replicates. The cytotoxicity of all compounds was determined by the MTT (3-(4,5-dimethylthiazol-2-yl)-2,5-diphenyltetrazolium bromide) assay (Sigma, St. Louis, MO, USA). Briefly, after 24 h or 48 h of incubation with a given compound, the cells were treated with the MTT reagent and incubation was continued for 2 h. MTT-formazan crystals were dissolved in 20% SDS and 50% DMF at pH 4.7 and VIS light absorption was measured at 570 and 650 nm on a microplate reader FLUOstar Omega (BMG Labtech, Offenburg, Germany). As a control (100% viability), cells grown in the presence of 1% DMSO were used.

caspases 8/9 [1] = assay: Caspase-Glo 8 and 9 luminescent activity assay in K562 cells; format: cell-based, human; settings: K562, 5× IC50, 6 h, control 1% DMSO = 1.0
Procedure: (§1) Louis, MO). The induction of cell apoptosis was analyzed by Apo-ONE® Homogeneous Caspase-3/7 Assay (Promega, Madison, WI, USA). […] The fluorescence in each well was measured in triplicate (excitation at 485 nm, emission measured at 520 nm) using a microplate reader FLUOStar Omega (BMG-Labtech, Offenburg, Germany). For normalization of the data, the caspase activity in the control cells (exposed to 1% DMSO) was taken as 1.0. […] Luminescence was measured (in triplicate) using a microplate reader FLUOStar Omega. For normalization of the data, the caspase activity in the control cells (exposed to 1% DMSO) was taken as 1.0.

caspases 8/9 [2] = assay: Caspase-Glo 8 and 9 luminescent activity assay in MOLT-4 cells; format: cell-based, human; settings: MOLT-4, 5× IC50, 3 h, control 1% DMSO = 1.0
Procedure: as §1

[3] = system: BAX, PMAIP1, HTRA2, TNFRSF 10B, ESRRBL1 mRNA; assay: Real-time RT-qPCR of apoptosis-related mRNAs in K562 cells; format: cell-based, human; settings: K562, 18 h, 3 10 µM, 6 5 µM (5× IC50), relative to 1% DMSO, normalized to GAPDH
Procedure: The total RNA pool was isolated from the cells lysates using TriPure Isolation Reagent (Roche, Basel, Switzerland) according to the manufacturer's instruction. Purity and integrity of RNA was checked spectrophotometrically with a NanoDrop ND-1000 spectrophotometer (Thermo Fisher Scientific, Waltham, MA, USA) and Agilent 2100 Bioanalyzer instrument. […] Reverse transcription and polymerase chain reaction (RT-PCR) amplification reactions were performed in one step using a LightCycler® 1.0 Instrument (Roche) and LightCycler RNA Amplification Kit SYBR Green I (Roche). […] The qRT-PCR reactions were optimized for each studied gene and performed according to a general protocol: a reverse transcription reaction (RT) for 10 min. at 55 °C, and a denaturation step for 30 s at 95 °C. The three steps of PCR quantification reaction included: I-denaturation (0 s at 95 °C), II-annealing (10 s at 60 °C), III-product extension (8 s at 72 °C), 45 cycles in total. Subsequent melting experiments were performed by quick denaturation at 95 °C, annealing over 10 s at 65 °C and heating up to 95 °C at 0.1 °C/s. The BAX, PMAIP1, HTRA2, TNFRSF 10B, and ESRRBL1 mRNA levels were normalized against a reference GAPDH mRNA. […]

[4] = system: HeLa cells with knocked-down ABC50 (HeLa kdABC); assay: MTT viability of HeLa cells with siRNA knockdown of ABC50; format: cell-based, human; settings: 48 h
Procedure: Human umbilical vein endothelial cells (purchased from Life Technologies, Carlsbad, CA, USA) were cultured according to the manufacturer’s instructions in Medium 200 supplemented with Low Serum Growth Supplement. 1 × 10^4 cells were seeded on each well on a 96-well plate (Nunc, Roskilde, Denmark). The HeLa (human cervix carcinoma, cat. #93021013), CFPAC (human pancreatic adenocarcinoma, cat. #91112501), K562 (chronic myelogenous leukemia, cat. #89121407), HL-60 (acute myelogenous leukemia, cat. #98070106), and MOLT-4 (Human acute T lymphoblastic leukemia, cat. #85011413) cells were purchased from European Collection of Authenticated Cell Cultures (ECACC). They were cultured in an RPMI 1640 medium supplemented with antibiotics (streptomycin, penicillin) and 10% fetal calf serum (20% for HL60), in a 5% CO2-95% air atmosphere. 7 × 10^3 cells were seeded on each well on a 96-well plate (Nunc). 24 hours later the cells were exposed to the test compounds. […] The cytotoxicity of all compounds was determined by the MTT (3-(4,5-dimethylthiazol-2-yl)-2,5-diphenyltetrazolium bromide) assay (Sigma, St. Louis, MO, USA). […] MTT-formazan crystals were dissolved in 20% SDS and 50% DMF at pH 4.7 and VIS light absorption was measured at 570 and 650 nm on a microplate reader FLUOstar Omega (BMG Labtech, Offenburg, Germany). […]
HeLa cells were transfected with a siRNA with the aid of Lipofectamine 3000 (Invitrogen, Carlsbas, CA, USA) according to manufacturer’s instructions. […] Unless otherwise stated, cells transfected with a given siRNA were analyzed 48 h post-transfection. siRNAs for ABC50 (NM_001090) were designed with the aid of the siDESIGN Center (www.dharmacon.com), synthesized in-house (the Department of Bioorganic Chemistry, Centre of Molecular and Macromolecular Studies, Polish Academy of Sciences (CMMS PAS) and purified by high-performance liquid chromatography (HPLC). The silencing efficiency of siRNAs was determined by western blotting of ABC50 protein in transfected HeLa cells. The following siRNA duplexes (S—sense strand, AS—antisense strand) were used: […]

Compound	IC50 (CFPAC cells) [µM]	increase of activity of caspases 8/9 compared to the control (caspases 8/9 [1])	activation of caspases 8/9 compared to the control (caspases 8/9 [2])	expression of mRNAs of receptor (TNFRSF 10B, ESRRBL1) and mitochondrial (BAX, PMAIP1, HTRA2) apoptotic pathways [3]	viability of HeLa cells with normal levels of ABC50 (siCTL) ([4]; control siRNA, up to 2.5 µM)	reduction of viability of HeLa kdABC ([4]; si166, 5 µM)	viability of HeLa cells with knocked-down ABC50 (HeLa kdABC) ([4]; si166, up to 2.5 µM)
CCC12C(=O)C(CC)(C(c3ccccc3)=C1c1ccccc1)C1C(=O)N(CCN3CCCCC3)C(=O)C12 (stereo not drawn) [Compound 3]	> 1000	more than 2 fold	more than 10 fold	significantly induced			
CCC12C(=O)C(CC)(C(c3ccccc3)=C1c1ccccc1)C1C(=O)N(CC(O)CNC(C)C)C(=O)C12 (stereo not drawn) [Compound 5]	> 1000						
CN(C)CCN1C(=O)C2C(C1=O)C1(c3ccccc3)CC2(c2ccccc2)C(c2ccccc2)=C1c1ccccc1 (stereo not drawn) [Compound 6]	40 ± 3.1	more than 2 fold	more than 10 fold	significantly induced	significantly lower	about 20%	not affected
